Data reported in patent US20110207689A1, “THE TREATMENT OF HEARING LOSS” (Auckland UniServices Limited, priority 2008, published 2011).
“Also recorded” adds a separate entry of the source.

How the values were obtained:
Assay type in all cases: in vivo, Wistar rats
[1] = tested on: organ of Corti hair cells; experiment: Hair cell loss, phalloidin-stained organ of Corti after 24 hours noise (Experiment 1); conditions: basal turn, noise 8-12 kHz 110 dB SPL 24 hours, versus vehicle
Text: After the last ABR measurement, rats were killed by Pentobarbitone overdose and cochleae removed for histological analysis. The isolated cochleae were kept in 4% Paraformaldehyde overnight, until further processing (decapsulation or decalcification).
(§1) After the overnight fixation, the cochlea was decapsulated in 0.1 M PBS, to isolate the organ of Corti. The organ of Corti was removed with fine forceps, and separated into the apical, middle and basal turns. Wholemount tissues of the organ of Corti were placed into a 24-well plate, and then permeabilised with 1% Trition-X in 0.1 M PBS for 1 hour. 1% Alexa Fluor 488 phalloidin (Invitrogen) dissolved in 0.1 M PBS was used to stain the hair cells and their stereocilia. Tissues were incubated in phalloidin for 40 minutes, washed with 0.1 M PBS 3×10 min and mounted onto glass slides using CitiFlour. The slides were visualised using a Zeiss epi-fluorescence microscope and processed with Axiovision v3.1 software, using dark field filter and 100×, 200×, and 400× magnification. Non-overlapping images were taken for the entire length of the cochlea, and the number of missing outer hair cells was counted for each turn and presented as a percentage of total number of hair cells.

[2] = tested on: nitrotyrosine immunoreactivity in the organ of Corti; experiment: Nitrotyrosine (NT) immunohistochemistry of cochlea after 24 hours noise (Experiment 1); conditions: ADAC treated cochlea versus vehicle
Experimental: Hearing thresholds were assessed using auditory brainstem responses (ABRs) and the cellular damage was evaluated by quantitative histology (hair cell loss). ABR represents the activity of the auditory nerve and the central auditory pathways (brainstem/mid-brain regions) responding to the sound (clicks or pure tones). Nitrotyrosine marker was used for the immunohistochemical assessment of free radical damage.
After overnight fixation in 4% PFA, rat cochleae were decalcified in a 5% EDTA solution for 7 days and cryoprotected in a 30% sucrose (in 0.1 M PB) solution overnight. The cochleae were snap-frozen in N-pentane, and stored at −80° C. until further processing. Frozen cochlear tissues were cryosectioned at 30 μm and transferred into 24-well plates (Nalge Nunc Int., Naperville, USA) containing the sterile 0.1M PBS, and permeabilised with 1% Triton X-100 for 1 hr. Non-specific binding sites were blocked with 10% normal goat serum (Vector Laboratories, Burlingame, Calif.). […] Tissue sections were incubated with the secondary antibody for 2 hours in the dark, then rinsed several times in PBS, mounted in fluorescence medium (DAKO Corporation, Carpinteria, Calif., USA) and screened for NT specific immunofluorescence using a confocal microscope (TCS SP2, Leica Leisertechnik GmbH, Heidelberg, Germany). […]

[3] = Body weight, temperature and behaviour in animals treated with ADAC (Experiment 2)
Experimental: A. Body weight was measured immediately before noise exposure and 14 days after noise exposure. B. Rectal temperature (° C.) was measured before ADAC administration and 30 and 60 minutes after the injection. Number of animals: n=8 per group.

[4] = tested on: rats exposed to 8-12 kHz band noise for 2 hours at 110 dB SPL; experiment: ABR threshold shifts after acute (2 hours) noise exposure, systemic ADAC (Experiment 2); conditions: 14 days post-noise
Experimental: ABRs were measured in response to auditory clicks and pure tones (4-28 kHz) before and at time intervals (30 minutes and 14 days) after noise exposure. Five ADAC injections (100 μg/kg i.p.) were administered at 24 hour intervals commencing 6 hours post-noise. In the control group, injections of the vehicle solution were administered at the same intervals as ADAC. Data are expressed as means±SEM. Animal numbers: n=8 per group. *p<0.05; **p<0.01; unpaired t-test.
Rats were exposed to 8-12 kHz band noise presented for 2 hours at 110 dB SPL. […]
ABRs were obtained by placing fine platinum electrodes subdermally at the mastoid region of the ear of interest (active electrode), scalp vertex (reference) and mastoid region of the opposite ear (ground electrode). […] The sound threshold of the ABR complex (waves I-IV) were determined by progressively attenuating the sound intensity until the waveform can no longer be observed. The acoustic stimuli for ABR were produced and the responses recorded using a Tucker-Davis Technologies auditory physiology workstation (Alachua, Fla., USA).
All ABR measurements were performed in a sound attenuator chamber (Shelburg Acoustics, Sydney, Australia). […] The ABR threshold was defined as the lowest intensity (to the nearest 5 dB) at which a response could be visually detected above the noise floor. […]

[5] = tested on: organ of Corti hair cells; experiment: Hair cell counts after acute (2 hours) noise exposure (Experiment 2); conditions: 2 h noise 110 dB SPL; five ADAC injections; vehicle 23-34%
Experimental: as §1
The percentage of total number of hair cells was determined as for Experiment 1.
The outer and inner hair cells were counted in Alexa 488 phalloidin-labelled surface preparation of the organ of Corti in the basal, middle and apical turns and the percentage of missing hair cells was calculated for each turn.

**Q.** With `NCCNC(=O)Cc1ccc(NC(=O)Cc2ccc(Nc3ncnc4c3ncn4[C@@H]3O[C@H](CO)[C@@H](O)[C@H]3O)cc2)cc1` [ADAC, adenosine amine congener] as the compound, how does the “hair cell morphology, surface preparation of the organ of Corti” value [1] read?
**A.** well preserved hair cell morphology

**Q.** What about the “NT immunostaining in the cochlea” value [2] of the same compound?
**A.** very little NT immunostaining; also recorded: reduced in the ADAC treated cochlea to a background level

**Q.** And the overt behavioural changes ([3]; ADAC 100 μg/kg)?
**A.** did not induce overt behavioural changes

**Q.** What about the body weight ([3]; ADAC 100 μg/kg, before noise exposure and 14 days after) of the same compound?
**A.** did not induce overt behavioural changes in rats or alterations in body weight

**Q.** And the “signs of systemic toxicity (loss of body weight, feeding or drinking behaviour, hypothermia)” value ([3]; ADAC treatment)?
**A.** No signs of systemic toxicity

**Q.** What about the “body temperature (rectal)” value ([3]; before and 30 and 60 minutes after ADAC 100 μg/kg injection) of the same compound?
**A.** remained stable

**Q.** What about the “ABR threshold shifts versus vehicle-treated controls” value ([4]; five ADAC injections) of the same compound?
**A.** threshold shifts were reduced

**Q.** And the “threshold recovery, highest” value ([4]; pure tone frequencies 4 to 16 kHz, five ADAC injections 100 μg/kg i.p. commencing 6 hours post-noise)?
**A.** up to 30 dB

**Q.** And the “hair cell loss, basal cochlear turn (average)” value [5]?
**A.** 9%

**Q.** What about the “hair cell loss, middle cochlear turn (average)” value [5] of the same compound?
**A.** 7%
